The source of these data is doi:10.1101/2023.09.04.556216v2 (bioRxiv, 2023).

The term fraction remaining denotes what is left of the initial amount, in per cent.

Numbered stars: 1 amine (or outer) side, 2 acyl side, 3 side chain; on linkers, the order of the positions; unused ones are H or OH. Bridge positions count the residues as written; N and C are the ends. Peptide text beside a SMILES is read from it. Biphenyl(4,4'-CH2)2 = c1cc(-c2ccc(C[*:2])cc2)ccc1C[*:1]

Series [1] deals with PC3 cells. Nature of the series: Cell viability. The format is cell-based. On the set-up: unit not given beside the values. Particulars: comparison experiment Fig. S17, unit not given.
The test system of another series is DU145 cells. Nature of the series: Cell viability. The format is cell-based. Set-up: unit not given beside the values. Particulars: comparison experiment Fig. S17, unit not given.
A short description of series [2]: Serum stability in 25% FBS. The format is in vitro ADME, bovine. As to conditions: 25% FBS (serum:buffer 1:3), pH 7.4.
For another series, the system named is PC3 or DU145. Nature of the series: Colony formation assay. The format is cell-based. Particulars: 15 μM peptide, PC3 or DU145, n=3.
The test system of another series is PCa cells. In words: EdU labeling of cell proliferation. Format: cell-based. As to conditions: 15 μM peptide, EdU labeling 2 h.
Series [3] concerns PC3 cells. In words: Flow cytometry cell cycle analysis, PC3. The format is cell-based. As to conditions: 15 µM, 12 h, PBS group ∼8.5%.
Series [4] has as its system PC3 cells. In words: Annexin V-FITC flow cytometry apoptosis, PC3. The format is cell-based. Particulars: 15 μM peptide.
For a further series, the system named is DU145. In words: Annexin V-FITC flow cytometry apoptosis, DU145. Format: cell-based. Particulars: 15 μM peptide, PBS ∼5%. (A flow cytometer gives signals particle by particle.)
Another series concerns m6A modification. Nature of the series: m6A ELISA in cells. Particulars: PC3 or DU145 cells, Fig. 5f. Format: cell-based. (In general: ELISA stands for enzyme-linked immunosorbent assay.)
Another series deals with METTL3/METTL14 complex (Homo sapiens, UniProt Q86U44). In words: Co-Immunoprecipitation of METTL3 and METTL14. Format: cell-based. Particulars: Co-IP, quantitative analysis, Fig. S11.
The next series has as its target METTL3 (Homo sapiens, UniProt Q86U44). Nature of the series: Western blot of METTL3/METTL14 level and half-life. Particulars: for METTL3 half-life: PC3 cells pre-treated with cycloheximide (CHX), WB, 25 μM over 12 h; for METTL3 (and METTL14) protein levels by WB: PC3 cells, RSM3 25 μM, 12 h. The format is cell-based. Background: Immunoblotting shows a protein as a band on a membrane.

For the next series, the system named is PC3 xenograft tumor. In words: PC3 xenograft tumor model. Format: in vivo, BALB/c nude mice. Particulars: for decrease of Ki67 in tumor (IHC) / increase of caspase-3 expression in tumor (IHC) / reduction in METTL3 expression in tumor (IHC) / reduction in m6A levels in tumor (IHC): 20 mg/kg peritumoral; for reduction in METTL3 expression in tumor (IHC) / reduction in m6A levels in tumor (IHC): compared to R9 and PBS groups; for average tumor mass relative to PBS group: 20 mg/kg, 10 days of treatment, Fig. S19c.

For another series, the system named is ASPC-1 xenograft tumors. Nature of the series: ASPC-1 xenograft tumor model. As to conditions: 20 mg/kg, 10 days of treatment. The format is in vivo, mice.
The mark [5] stands for this setting: peri-tumoral injection 20 mg/kg every two days for two weeks.

METTL3, sequence (Q86U44 whole entry): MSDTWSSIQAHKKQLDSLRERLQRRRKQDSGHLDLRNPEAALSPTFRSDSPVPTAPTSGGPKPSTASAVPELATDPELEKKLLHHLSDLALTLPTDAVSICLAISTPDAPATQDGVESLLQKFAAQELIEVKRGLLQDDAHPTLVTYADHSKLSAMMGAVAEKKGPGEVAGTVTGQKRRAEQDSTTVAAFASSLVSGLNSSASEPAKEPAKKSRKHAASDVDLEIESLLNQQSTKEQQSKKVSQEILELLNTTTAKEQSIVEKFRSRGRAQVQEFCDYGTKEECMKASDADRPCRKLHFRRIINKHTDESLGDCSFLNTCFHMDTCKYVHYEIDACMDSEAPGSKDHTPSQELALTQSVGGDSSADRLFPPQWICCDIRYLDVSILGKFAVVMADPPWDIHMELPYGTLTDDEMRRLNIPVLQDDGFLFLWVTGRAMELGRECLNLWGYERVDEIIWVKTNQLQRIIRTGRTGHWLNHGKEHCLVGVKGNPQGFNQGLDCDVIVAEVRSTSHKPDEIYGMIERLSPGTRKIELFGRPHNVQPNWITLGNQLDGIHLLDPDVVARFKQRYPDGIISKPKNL
METTL3/METTL14 complex, sequence (Q86U44 whole entry, one chain of several): as the sequence (Q86U44 whole entry) above

As for `CSCC[C@@H]1NC(=O)[C@@H](NC(=O)[C@H](CCCNC(=N)N)NC(=O)[C@H](CCCNC(=N)N)NC(=O)[C@H](CCCNC(=N)N)NC(=O)[C@H](CCCNC(=N)N)NC(=O)[C@H](CCCNC(=N)N)NC(=O)[C@H](CCCNC(=N)N)NC(=O)[C@H](CCCNC(=N)N)NC(=O)[C@H](CCCNC(=N)N)NC(=O)[C@H](CCCNC(=N)N)NC(=O)[C@@H](N)CCCNC(=N)N)CSCc2ccc(cc2)-c2ccc(cc2)CSC[C@@H](C(=O)N[C@@H](CC(C)C)C(=O)N[C@@H](CC(N)=O)C(=O)N[C@@H](CC(C)C)C(=O)N[C@@H](Cc2c[nH]c3ccccc23)C(N)=O)NC(=O)[C@H](CCC(=O)O)NC(=O)[C@H](CCCNC(=N)N)NC(=O)CNC(=O)[C@H](CC(C)C)NC(=O)[C@H](CCC(=O)O)NC1=O` [RSM3] (H-RRRRRRRRRRCMELGRECLNLW-NH2; linker 11-18 via Biphenyl(4,4'-CH2)2; N-terminus assumed), the “IC50 in PC3, RSM3 vs STM2457” value in the series with PC3 cells [1] is 26.5 ± 1.2. Also, the “IC50 in DU145, RSM3 vs STM2457” value in the series with DU145 cells amounted to 33.6 ± 1.5. In series [2], this compound had a fraction remaining at 6 h, 200 µM of about 41.8%. The “fold reduction in colony formation” value with PC3 or DU145 is on record as about 20 fold. The “EdU signal relative to PBS control group” value in the series on PCa cells is about 35.0%. For the same compound, the “cells arrested in sub-G1 phase, PC3” value in the series on PC3 cells [3] is listed as about 29.2%. Besides, in the series with PC3 cells [4], the “late-stage share of total apoptotic PC3 cells” value is about 90% and the “proportion of apoptotic cells, fold higher than RM3” value is given as “approximately 2 fold”. The “cells that entered apoptosis, PC3” value with PC3 cells [4] (PBS 4%) was about 60%. In addition, the “cells that entered apoptosis, DU145” value with DU145 is listed as about 30%. Further, the “m6A modification level relative to R9 and PBS treatment groups” value in the series with m6A modification was about 20%. Moreover, the “reduction of METTL3-METTL14 interaction” value at METTL3/METTL14 complex was “fifty”. In addition, on METTL3, the METTL3 half-life result is “dramatically reduced half-life” and the “METTL3 (and METTL14) protein levels by WB” value was “reduced”. Moreover, in the series on PC3 xenograft tumor, the “decrease of Ki67 in tumor (IHC)” value is listed as about 65%, the “increase of caspase-3 expression in tumor (IHC)” value is about 1.8 fold, the “reduction in METTL3 expression in tumor (IHC)” value is listed as about 50% and the “reduction in m6A levels in tumor (IHC)” value was about 50%. Also, in the series on PC3 xenograft tumor, the “average tumor mass relative to PBS group” value is about 37%. In the series on PC3 xenograft tumor (setting [5]), the “tumor growth compared to R9 or PBS control groups” value is recorded as “significant suppression of tumor growth” and the “tumor volume, fold smaller than controls” value is 2∼3 fold. Further, in the series on ASPC-1 xenograft tumors, the “tumor weight, lighter than PBS- and R9-treated controls” value is recorded as about 50%.
On to STM2457 [reference compound], for which, in the series on PC3 cells [1], the “IC50 in PC3, RSM3 vs STM2457” value is 95.5 ± 3.6. The “IC50 in DU145, RSM3 vs STM2457” value with DU145 cells is on record as 149.3 ± 10.1. Besides, at METTL3, the “METTL3 (and METTL14) protein levels by WB” value was “no influence”. For the same compound, the “average tumor mass relative to PBS group” value with PC3 xenograft tumor is listed as 70%.
Turning to `CSCC[C@H](NC(=O)[C@H](CS)NC(=O)[C@H](CCCNC(=N)N)NC(=O)[C@H](CCCNC(=N)N)NC(=O)[C@H](CCCNC(=N)N)NC(=O)[C@H](CCCNC(=N)N)NC(=O)[C@H](CCCNC(=N)N)NC(=O)[C@H](CCCNC(=N)N)NC(=O)[C@H](CCCNC(=N)N)NC(=O)[C@H](CCCNC(=N)N)NC(=O)[C@H](CCCNC(=N)N)NC(=O)[C@@H](N)CCCNC(=N)N)C(=O)N[C@@H](CCC(=O)O)C(=O)N[C@@H](CC(C)C)C(=O)NCC(=O)N[C@@H](CCCNC(=N)N)C(=O)N[C@@H](CCC(=O)O)C(=O)N[C@@H](CS)C(=O)N[C@@H](CC(C)C)C(=O)N[C@@H](CC(N)=O)C(=O)N[C@@H](CC(C)C)C(=O)N[C@@H](Cc1c[nH]c2ccccc12)C(N)=O` [RM3] (H-RRRRRRRRRRCMELGRECLNLW-NH2; N-terminus assumed), in the series with PC3 or DU145, the “fold reduction in colony formation” value is about 20 fold. Further, the “EdU signal relative to PBS control group” value in the series on PCa cells was about 47.0%. Also, the “m6A modification level relative to R9 and PBS treatment groups” value with m6A modification is recorded as about 20%. At METTL3, the METTL3 half-life entry was “dramatically reduced half-life”. Further, in the series on PC3 xenograft tumor, the “decrease of Ki67 in tumor (IHC)” value is about 65%, the “increase of caspase-3 expression in tumor (IHC)” value is listed as about 1.8 fold, the “reduction in METTL3 expression in tumor (IHC)” value is on record as about 50% and the “reduction in m6A levels in tumor (IHC)” value is listed as about 50%. For the same compound, in the series with PC3 xenograft tumor (setting [5]), the “tumor growth compared to R9 or PBS control groups” value is “significant suppression of tumor growth”.
